Experimental data taken from publication PMC7933434, “Entropy-driven binding of gut bacterial β-glucuronidase inhibitors ameliorates irinotecan-induced toxicity” (Communications Biology, 2021).
Values joined by “and” are separate entries in the source; they are usually repeats but may differ in a detail not shown here. Identical values can stand only once.

Molecular target: T1, HsGUS (human GUS) (Homo sapiens, UniProt P08236)
T1 construct: HsGUS was prepared as described[37]; made in house
T1 sequence (P08236 23-651): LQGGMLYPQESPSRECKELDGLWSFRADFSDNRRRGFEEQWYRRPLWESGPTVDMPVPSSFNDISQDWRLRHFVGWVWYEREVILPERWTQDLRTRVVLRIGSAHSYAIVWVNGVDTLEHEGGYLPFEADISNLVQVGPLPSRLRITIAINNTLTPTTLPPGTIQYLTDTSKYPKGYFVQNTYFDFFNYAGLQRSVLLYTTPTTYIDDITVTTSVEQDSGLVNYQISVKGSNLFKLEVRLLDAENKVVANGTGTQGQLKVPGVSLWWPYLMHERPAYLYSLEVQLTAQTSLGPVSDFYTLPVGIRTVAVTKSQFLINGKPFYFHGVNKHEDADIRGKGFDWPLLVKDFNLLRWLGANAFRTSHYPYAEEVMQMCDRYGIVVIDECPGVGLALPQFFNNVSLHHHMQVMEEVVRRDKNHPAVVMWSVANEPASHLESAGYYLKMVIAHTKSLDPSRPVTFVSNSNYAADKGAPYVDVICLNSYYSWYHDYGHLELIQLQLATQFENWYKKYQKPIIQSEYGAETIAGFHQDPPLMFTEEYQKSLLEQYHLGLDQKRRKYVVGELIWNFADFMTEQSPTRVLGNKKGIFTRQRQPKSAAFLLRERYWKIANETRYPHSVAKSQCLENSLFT
Assay: GUS inhibition assay, hydrolysis of 4-methylumbelliferyl-β-glucuronide, HsGUS
Format: biochemical
Parameters: GUS activity (hydrolysis rate of MUG): unit not given here
Details: for Ki: HsGUS

For `O=C(O)[C@H]1CNC[C@@H](O)[C@@H]1O` [Inhibitor 1, Uronic isofagomine], the Ki was 180 nM, the Ki (50 mM sodium acetate pH 4.5, 37 °C) was 180 ± 2 nM and the “GUS activity (hydrolysis rate of MUG)” value ([Inhibitor 1] =6.25 nM, [MUG] 0.1 mM) was 1052.77 and 919.367. For the same molecule, the “GUS activity (hydrolysis rate of MUG)” value ([Inhibitor 1] =6.25 nM, [MUG] 0.2 mM) was 1682.62 and 1656.5, the “GUS activity (hydrolysis rate of MUG)” value ([Inhibitor 1] =6.25 nM, [MUG] 0.4 mM) was 2736.45 and 2863.61 and the “GUS activity (hydrolysis rate of MUG)” value ([Inhibitor 1] =6.25 nM, [MUG] 0.6 mM) was 3626.7 and 3614.16. For the same molecule, the “GUS activity (hydrolysis rate of MUG)” value ([Inhibitor 1] =6.25 nM, [MUG] 0.8 mM) was 4294.49 and 4051.74, the “GUS activity (hydrolysis rate of MUG)” value ([Inhibitor 1] =6.25 nM, [MUG] 1.2 mM) was 5041.75 and 5285.84 and the “GUS activity (hydrolysis rate of MUG)” value ([Inhibitor 1] =6.25 nM, [MUG] 1.6 mM) was 5716.1 and 5569.72. For the same molecule, the “GUS activity (hydrolysis rate of MUG)” value ([Inhibitor 1] =6.25 nM, [MUG] 2 mM) was 6253.7 and 6084.56, the “GUS activity (hydrolysis rate of MUG)” value ([Inhibitor 1] =12.5 nM, [MUG] 0.1 mM) was 964.973 and 946.536 and the “GUS activity (hydrolysis rate of MUG)” value ([Inhibitor 1] =12.5 nM, [MUG] 0.2 mM) was 1634.13 and 1650.2. For the same molecule, the “GUS activity (hydrolysis rate of MUG)” value ([Inhibitor 1] =12.5 nM, [MUG] 0.4 mM) was 2735.98 and 2661.78, the “GUS activity (hydrolysis rate of MUG)” value ([Inhibitor 1] =12.5 nM, [MUG] 0.6 mM) was 3585.06 and 3536.5 and the “GUS activity (hydrolysis rate of MUG)” value ([Inhibitor 1] =12.5 nM, [MUG] 0.8 mM) was 4058.66 and 4004.34. For the same molecule, the “GUS activity (hydrolysis rate of MUG)” value ([Inhibitor 1] =12.5 nM, [MUG] 1.2 mM) was 4753.61 and 4787.97, the “GUS activity (hydrolysis rate of MUG)” value ([Inhibitor 1] =12.5 nM, [MUG] 1.6 mM) was 5496.19 and 5468.5 and the “GUS activity (hydrolysis rate of MUG)” value ([Inhibitor 1] =12.5 nM, [MUG] 2 mM) was 6215.35 and 6326.21. For the same molecule, the “GUS activity (hydrolysis rate of MUG)” value ([Inhibitor 1] =25 nM, [MUG] 0.1 mM) was 888.487 and 880.944, the “GUS activity (hydrolysis rate of MUG)” value ([Inhibitor 1] =25 nM, [MUG] 0.2 mM) was 1602.44 and 1479.41 and the “GUS activity (hydrolysis rate of MUG)” value ([Inhibitor 1] =25 nM, [MUG] 0.4 mM) was 2621.31 and 2595.47. The “GUS activity (hydrolysis rate of MUG)” value ([Inhibitor 1] =25 nM, [MUG] 0.6 mM) was 3374.76 and 3226.51, the “GUS activity (hydrolysis rate of MUG)” value ([Inhibitor 1] =25 nM, [MUG] 0.8 mM) was 3934.08 and 3700.76 and the “GUS activity (hydrolysis rate of MUG)” value ([Inhibitor 1] =25 nM, [MUG] 1.2 mM) was 4557.18 and 4846.86. The “GUS activity (hydrolysis rate of MUG)” value ([Inhibitor 1] =25 nM, [MUG] 1.6 mM) was 5394.55 and 5298.67, the “GUS activity (hydrolysis rate of MUG)” value ([Inhibitor 1] =25 nM, [MUG] 2 mM) was 6010.34 and 6068.98 and the “GUS activity (hydrolysis rate of MUG)” value ([Inhibitor 1] =50 nM, [MUG] 0.1 mM) was 874.409 and 866.834. The “GUS activity (hydrolysis rate of MUG)” value ([Inhibitor 1] =50 nM, [MUG] 0.2 mM) was 1446.88 and 1448.8, the “GUS activity (hydrolysis rate of MUG)” value ([Inhibitor 1] =50 nM, [MUG] 0.4 mM) was 2554.3 and 2362.71 and the “GUS activity (hydrolysis rate of MUG)” value ([Inhibitor 1] =50 nM, [MUG] 0.6 mM) was 3157.04 and 3034.34. For the same molecule, the “GUS activity (hydrolysis rate of MUG)” value ([Inhibitor 1] =50 nM, [MUG] 0.8 mM) was 3775.39 and 3558.36, the “GUS activity (hydrolysis rate of MUG)” value ([Inhibitor 1] =50 nM, [MUG] 1.2 mM) was 4410.62 and 4573.1 and the “GUS activity (hydrolysis rate of MUG)” value ([Inhibitor 1] =50 nM, [MUG] 1.6 mM) was 4956.91 and 5204.72. For the same molecule, the “GUS activity (hydrolysis rate of MUG)” value ([Inhibitor 1] =50 nM, [MUG] 2 mM) was 5814.43 and 5846.27, the “GUS activity (hydrolysis rate of MUG)” value ([Inhibitor 1] =100 nM, [MUG] 0.1 mM) was 714.467 and 698.837 and the “GUS activity (hydrolysis rate of MUG)” value ([Inhibitor 1] =100 nM, [MUG] 0.2 mM) was 1267.32 and 1255.83. For the same molecule, the “GUS activity (hydrolysis rate of MUG)” value ([Inhibitor 1] =100 nM, [MUG] 0.4 mM) was 2205.11 and 2224.51, the “GUS activity (hydrolysis rate of MUG)” value ([Inhibitor 1] =100 nM, [MUG] 0.6 mM) was 2972.37 and 2813 and the “GUS activity (hydrolysis rate of MUG)” value ([Inhibitor 1] =100 nM, [MUG] 0.8 mM) was 3383.16 and 3413.02. For the same molecule, the “GUS activity (hydrolysis rate of MUG)” value ([Inhibitor 1] =100 nM, [MUG] 1.2 mM) was 4189.2 and 4174.02, the “GUS activity (hydrolysis rate of MUG)” value ([Inhibitor 1] =100 nM, [MUG] 1.6 mM) was 4730.59 and 4939.86 and the “GUS activity (hydrolysis rate of MUG)” value ([Inhibitor 1] =100 nM, [MUG] 2 mM) was 5626.48 and 5332.35. The “GUS activity (hydrolysis rate of MUG)” value ([Inhibitor 1] =200 nM, [MUG] 0.1 mM) was 493.269 and 528.779, the “GUS activity (hydrolysis rate of MUG)” value ([Inhibitor 1] =200 nM, [MUG] 0.2 mM) was 887.805 and 953.041 and the “GUS activity (hydrolysis rate of MUG)” value ([Inhibitor 1] =200 nM, [MUG] 0.4 mM) was 1572.94 and 1681.59. The “GUS activity (hydrolysis rate of MUG)” value ([Inhibitor 1] =200 nM, [MUG] 0.6 mM) was 2196.34 and 2140.47, the “GUS activity (hydrolysis rate of MUG)” value ([Inhibitor 1] =200 nM, [MUG] 0.8 mM) was 2605.47 and 2684.29 and the “GUS activity (hydrolysis rate of MUG)” value ([Inhibitor 1] =200 nM, [MUG] 1.2 mM) was 3423.7 and 3486.94. For the same molecule, the “GUS activity (hydrolysis rate of MUG)” value ([Inhibitor 1] =200 nM, [MUG] 1.6 mM) was 4057.78 and 4000.72.
